The values below come from ChEMBL document CHEMBL3526044, “Effect of albumin on human liver microsomal and recombinant CYP1A2 activities: impact on in vitro-in vivo extrapolation of drug clearance” (Drug Metab Dispos, 2012).

A short description of series [1]: Stability of the compound assessed as retention time by HPLC analysis.
Series [2] deals with Homo sapiens. Description: Intrinsic clearance in healthy human at 250 mg, iv. Conditions: in vivo. In kind it is ADME, organism-based.
Series [3] has as its system Liver microsome. Kind of series: (§1) Drug metabolism in human liver microsomes assessed as enzyme-mediated O-deethylation incubated for 5 mins prior to NADPH addition measured after 25 mins by Michaelis-Menten equation analysis. Format: ADME. Conditions: microsomes, 25 min.
Series [4] in a line: as §1. Format: ADME. Conditions: liver microsomes.
Series [5] has as its target T1, Cytochrome P450 1A2 (Rattus norvegicus, UniProt P04799).
T1 sequence (P04799 whole entry): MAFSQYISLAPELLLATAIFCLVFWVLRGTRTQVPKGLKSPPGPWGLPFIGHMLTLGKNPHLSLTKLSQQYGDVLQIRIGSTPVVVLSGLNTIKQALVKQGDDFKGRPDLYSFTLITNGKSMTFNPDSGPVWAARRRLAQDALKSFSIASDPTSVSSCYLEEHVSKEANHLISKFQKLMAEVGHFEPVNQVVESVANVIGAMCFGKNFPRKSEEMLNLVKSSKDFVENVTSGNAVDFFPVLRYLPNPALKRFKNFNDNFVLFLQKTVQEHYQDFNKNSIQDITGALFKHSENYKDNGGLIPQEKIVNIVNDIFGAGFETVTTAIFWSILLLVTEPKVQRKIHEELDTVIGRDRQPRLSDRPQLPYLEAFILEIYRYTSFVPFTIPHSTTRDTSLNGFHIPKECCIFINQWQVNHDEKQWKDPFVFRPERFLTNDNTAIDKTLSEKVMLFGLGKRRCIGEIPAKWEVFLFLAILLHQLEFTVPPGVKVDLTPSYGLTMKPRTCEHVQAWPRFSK
Description: Binding affinity to rat recombinant CYP1A2 expressed in Escherichia coli assessed as fraction unbound by equilibrium dialysis method in presence of BSA. In kind it is ADME.

Series [6] concerns Liver microsome. Kind of series: (§2) Drug metabolism in human liver microsomes assessed as enzyme-mediated O-deethylation incubated for 5 mins prior to NADPH addition measured after 25 mins by Michaelis-Menten equation analysis in presence of BSA. Conditions: microsomes, 25 min. Format: ADME.
The nature of series [7]: as §2. Format: ADME. Conditions: liver microsomes.
The nature of series [8]: Fraction unbound in human liver microsomes by equilibrium dialysis method.
The nature of series [9]: Fraction unbound in human liver microsomes by equilibrium dialysis method in presence of BSA.
Series [10] has as its system Liver microsome. Kind of series: Drug metabolism in human liver microsomes assessed as retention time at 2 to 2000 uM incubated for 5 mins prior to NADPH addition measured after 25 mins by HPLC analysis. Format: ADME.
For series [11], the system named is Homo sapiens. Description: Hepatic clearance in healthy human at 250 mg, iv. Format: ADME, organism-based, Liver. Conditions: in vivo.
For series [12], the target named is T1, Cytochrome P450 1A2. Description: Binding affinity to rat recombinant CYP1A2 expressed in Escherichia coli assessed as fraction unbound by equilibrium dialysis method.
For series [13], the system named is Liver microsome. Kind of series: Drug metabolism in human liver microsomes assessed as retention time treated with 25 to 8000 uM lidocaine incubated for 5 mins prior to NADPH addition measured after 25 mins by HPLC analysis. In kind it is ADME.
Series [14] deals with T1, Cytochrome P450 1A2. Description: Competitive inhibition of rat recombinant CYP1A2 expressed in Escherichia coli assessed as inhibition of PHEN O-deethylation by dixon plot analysis. Format: ADME.
Substrate in series [15]: CCOc1ccc(NC(C)=O)cc1
Kind of series: Activity of rat recombinant CYP1A2 expressed in Escherichia coli assessed as enzyme-mediated O-deethylation after 7.5 mins by Michaelis-Menten equation analysis in presence of BSA. In kind it is ADME.

Substrate in series [16]: CCOc1ccc(NC(C)=O)cc1
Kind of series: Activity of rat recombinant CYP1A2 expressed in Escherichia coli assessed as enzyme-mediated O-deethylation after 7.5 mins by Michaelis-Menten equation analysis. In kind it is ADME.

Take `CCOc1ccc(NC(C)=O)cc1` [PHENACETIN]: the Retention_time in [1] was 3.6 min; with Liver microsome [10], 13 min. Further, the CL in the series with Homo sapiens [2] was 933 L/h. Also, the VmaxH in the series on Liver microsome [3] is 811 pmol/min; in the series on Liver microsome [6] it was 772 pmol/min. Also, the VmaxL is 523 pmol/min with Liver microsome [3] and 820 pmol/min in the series with Liver microsome [6]. Further, the Km at 25 min in series [4] (read-out: KmH) was determined as 27.8 µM; in series [4] (read-out: KmL) it was 867 µM; in series [7] (read-out: KmH) it was 6.6 µM; in series [7] (read-out: KmL), 881 µM. Also, the fraction unbound is 0.8 on Cytochrome P450 1A2 [5], 0.98 in [8], 0.78 in series [9] and 0.98 at Cytochrome P450 1A2 [12]. Further, in the series on Homo sapiens [11], the CLH was found to be 71 L/h.
With `CCNCC(=O)Nc1c(C)cccc1C`, in the series with Liver microsome [13], the Retention_time worked out at 4.4 min.
For `CCCCC/C=C\C/C=C\CCCCCCCC(=O)O` [SODIUM LINOLATE], the Ki on Cytochrome P450 1A2 [14] is 13.6 µM.
Turning to `CCCCC/C=C\C/C=C\C/C=C\C/C=C\CCCC(=O)O`, the Ki at Cytochrome P450 1A2 [14] turned out to be 4.7 µM.
On the same count and under the same terms, for `CCCCCCCC/C=C\CCCCCCCC(=O)[O-].[Na+]` the value was 16.7 µM.

B1: Cytochrome P450 1A2 (Rattus norvegicus) (protein)
chain: T1 sequence (P04799 whole entry)
Take B1: in [15], the Km is 3.8 µM and the Vmax amounted to 4.65e-05 µmol/min. In addition, in series [16], the Km worked out at 13.6 µM and the Vmax amounted to 3.97e-05 µmol/min.
